From patent publication US4740233A, “Substituted 1,2,4-triazolo[1,5-a]-pyrimidine-2-sulfonamides and compositions and methods of controlling undesired vegetation and suppressing the nitrification of ammonium nitrogen in soil” (The Dow Chemical Company, priority 1986, dated 1988)

How the values were obtained:
[1] = test system: pigweed; assay: Postemergent control of plant species; assay type: in vivo, Amaranthus spp.
Procedure, shortened: (§1)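 Compounds were taken up in acetone at twice the final concentration, then diluted with an equal volume of water containing 0.1% surfactant and sprayed onto greenhouse-grown plants at the 2-4 leaf stage. Plants were kept about two weeks under growth conditions; control is growth reduction relative to untreated plants of the same species.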

[2] = test system: rice; assay: Control of aquatic plant species (paddy water); assay type: in vivo, Oryza sativa; details: nine days
Procedure, shortened: (§2)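 Seedlings at the 1-2 inch stage were transplanted into about 2 inches of soil and flooded to roughly 1 inch. An acetone concentrate of test chemical was injected into the paddy water, with the injected volume varied to set concentration. Percent control was rated nine days after application.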

[3] = test system: cocklebur; assay: Postemergent control of plant species; assay type: in vivo, Xanthium spp.
Procedure, shortened: as §1

[4] = test system: annual morning glory; assay: Postemergent control of plant species; assay type: in vivo, Ipomoea spp.
Procedure, shortened: as §1

[5] = test system: rice; assay: Postemergent control of plant species; assay type: in vivo, Oryza sativa
Procedure, shortened: as §1

[6] = test system: nitrification of ammonium nitrogen; assay: Suppression of nitrification of ammonium nitrogen in soil; details: 27° C.
Procedure, shortened: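 Value is % NH4-N remaining after a two-week, 27° C incubation of treated soil held at 1/3 bar tension moisture. Nitrate was measured with an ion-selective electrode after extraction with ammonium sulfate solution and 10 min shaking.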

[7] = test system: cotton; assay: Postemergent control of plant species; assay type: in vivo, Gossypium spp.
Procedure, shortened: as §1

[8] = test system: yellow foxtail; assay: Postemergent control of plant species; assay type: in vivo, Setaria lutescens
Procedure, shortened: as §1

[9] = test system: crabgrass; assay: Postemergent control of plant species; assay type: in vivo, Digitaria spp.
Procedure, shortened: as §1

[10] = test system: rape; assay: Postemergent control of plant species; assay type: in vivo, Brassica napus
Procedure, shortened: as §1

[11] = test system: sugar beet; assay: Postemergent control of plant species; assay type: in vivo, Beta saccharifera
Procedure, shortened: as §1

[12] = test system: wild oats; assay: Postemergent control of plant species; assay type: in vivo, Avena fatua
Procedure, shortened: as §1

[13] = test system: barnyardgrass; assay: Postemergent control of plant species; assay type: in vivo, Echinochloa crusgalli
Procedure, shortened: as §1

[14] = test system: corn; assay: Postemergent control of plant species; assay type: in vivo, Zea mays
Procedure, shortened: as §1

[15] = test system: yellow nutsedge; assay: Control of aquatic plant species (paddy water); assay type: in vivo, Cyperus esculentus; details: nine days
Procedure, shortened: as §2

[16] = test system: jimsonweed; assay: Postemergent control of plant species; assay type: in vivo, Datura stramonium
Procedure, shortened: as §1

[17] = test system: barnyardgrass; assay: Control of aquatic plant species (paddy water); assay type: in vivo, Echinochloa crusgalli; details: nine days
Procedure: In testing for such utility, the plant species to be tested were transplanted into 16 oz. containers into about 2 inches of soil when they were in the 1-2 inch stage and then flooded to a depth of about 1 inch. An acetone concentrate of the chemical to be tested was then injected into the paddy water, the volume injected being varied as desired to provide the desired concentration. Percent control was evaluated nine days after application.

[18] = test system: sprangletop; assay: Control of aquatic plant species (paddy water); assay type: in vivo, Leptochloa filiformis; details: nine days
Procedure, shortened: as §2

[19] = test system: wheat; assay: Postemergent control of plant species; assay type: in vivo, Triticum aestivum
Procedure, shortened: as §1

[20] = test system: sorghum; assay: Postemergent control of plant species; assay type: in vivo, Sorghum vulgare
Procedure, shortened: as §1

[21] = test system: velvetleaf; assay: Postemergent control of plant species; assay type: in vivo, Abutilon theophrasti
Procedure, shortened: as §1

[22] = test system: johnson grass; assay: Postemergent control of plant species; assay type: in vivo, Sorghum halepense
Procedure, shortened: as §1

[23] = test system: soybean; assay: Postemergent control of plant species; assay type: in vivo, Glycine max.
Procedure, shortened: as §1

[24] = test system: yellow nutsedge; assay: Postemergent control of plant species; assay type: in vivo, Cyperus esculentus
Procedure, shortened: as §1

## Cc1nc2nc(S(=O)(=O)Nc3c(Cl)cccc3Cl)nn2c2c1CCC2 [Compound 108, 6,7-cyclopentano-5-methyl-N-(2,6-dichlorophenyl)-1,2,4-triazolo[1,5-a]pyrimidine-2-sulfonamide]
[1]; 500 ppm
  percent postemergent control: 0%
[2]; 1.0 Kg/Ha
  Percent control: 97%
[3]; 500 ppm
  percent postemergent control: 80%
[4]; 500 ppm
  percent postemergent control: 10%
[5]; 500 ppm
  percent postemergent control: 0%
[6]; 0.01 ppm
  % NH4-N Remaining After 2 Weeks Incubation: 43%
[6]; 0.1 ppm
  % NH4-N Remaining After 2 Weeks Incubation: 69%
[6]; 1 ppm
  % NH4-N Remaining After 2 Weeks Incubation: 84%
[6]; 10 ppm
  % NH4-N Remaining After 2 Weeks Incubation: 90%
[7]; 500 ppm
  percent postemergent control: 70%
[8]; 500 ppm
  percent postemergent control: 0%
[9]; 500 ppm
  percent postemergent control: 0%
[10]; 500 ppm
  percent postemergent control: 40%
[11]; 500 ppm
  percent postemergent control: 70%
[12]; 500 ppm
  percent postemergent control: 0%
[13]; 500 ppm
  percent postemergent control: 100%
[14]; 500 ppm
  percent postemergent control: 80%
[15]; 1.0 Kg/Ha
  Percent control: 90%
[16]; 500 ppm
  percent postemergent control: 30%
[17]; 1.0 Kg/Ha
  Percent control: 97%
[18]; 1.0 Kg/Ha
  Percent control: 97%
[19]; 500 ppm
  percent postemergent control: 60%
[20]; 500 ppm
  percent postemergent control: 80%
[21]; 500 ppm
  percent postemergent control: 90%
[22]; 500 ppm
  percent postemergent control: 100%
[23]; 500 ppm
  percent postemergent control: 75%
[24]; 500 ppm
  percent postemergent control: 35%

## Cc1cc(C)n2nc(S(=O)(=O)Nc3ccccc3)nc2n1 [Compound 1]
[1]; Amaranthus retroflexus, post-emergence, 336 h, read-out: percent postemergent control
  pest or weed control at 500 ppm: 60%
[2]; Oryza sativa, 216 h, 2.0 Kg/Ha, read-out: Percent control
  pest or weed control at 2000 g/ha: 97%
[3]; Xanthium strumarium, post-emergence, 336 h, read-out: percent postemergent control
  pest or weed control at 500 ppm: 0%
[4]; Ipomoea, post-emergence, 336 h, read-out: percent postemergent control
  pest or weed control at 500 ppm: 0%
[5]; Oryza sativa, post-emergence, 336 h, read-out: percent postemergent control
  plant injury at 500 ppm: 0%
[6]; 0.01 ppm
  % NH4-N Remaining After 2 Weeks Incubation: 0%
[6]; 0.1 ppm
  % NH4-N Remaining After 2 Weeks Incubation: 0%
[6]; 1 ppm
  % NH4-N Remaining After 2 Weeks Incubation: 35%
[6]; 10 ppm
  % NH4-N Remaining After 2 Weeks Incubation: 75%
[7]; Gossypium hirsutum, post-emergence, 336 h, read-out: percent postemergent control
  plant injury at 500 ppm: 0%
[8]; Setaria, post-emergence, 336 h, read-out: percent postemergent control
  pest or weed control at 500 ppm: 40%
[9]; Digitaria sanguinalis, post-emergence, 336 h, read-out: percent postemergent control
  pest or weed control at 500 ppm: 0%
[10]; Brassica napus, post-emergence, 336 h, read-out: percent postemergent control
  plant injury at 500 ppm: 60%
[11]; Beta vulgaris, post-emergence, 336 h, read-out: percent postemergent control
  plant injury at 500 ppm: 85%
[12]; Avena fatua, post-emergence, 336 h, read-out: percent postemergent control
  pest or weed control at 500 ppm: 0%
[13]; Echinochloa crus-galli, post-emergence, 336 h, read-out: percent postemergent control
  pest or weed control at 500 ppm: 15%
[14]; Zea mays, post-emergence, 336 h, read-out: percent postemergent control
  plant injury at 500 ppm: 0%
[15]; Cyperus, 216 h, 2.0 Kg/Ha, read-out: Percent control
  pest or weed control at 2000 g/ha: 70%
[16]; Datura stramonium, post-emergence, 336 h, read-out: percent postemergent control
  pest or weed control at 500 ppm: 0%
[17]; Echinochloa crus-galli, 216 h, 2.0 Kg/Ha, read-out: Percent control
  pest or weed control at 2000 g/ha: 95%
[18]; Leptochloa filiformis, 216 h, 2.0 Kg/Ha, read-out: Percent control
  pest or weed control at 2000 g/ha: 90%
[19]; Triticum aestivum, post-emergence, 336 h, read-out: percent postemergent control
  plant injury at 500 ppm: 0%
[20]; Sorghum, post-emergence, 336 h, read-out: percent postemergent control
  plant injury at 500 ppm: 40%
[21]; Abutilon theophrasti, post-emergence, 336 h, read-out: percent postemergent control
  pest or weed control at 500 ppm: 70%
[22]; Sorghum halepense, post-emergence, 336 h, read-out: percent postemergent control
  pest or weed control at 500 ppm: 60%
[23]; Glycine max, post-emergence, 336 h, read-out: percent postemergent control
  plant injury at 500 ppm: 30%
[24]; Cyperus, post-emergence, 336 h, read-out: percent postemergent control
  pest or weed control at 500 ppm: 0%
